PubChem BioAssay AID1329 (NMMLSC, 2008)
Active and inactive are the calls of the source. How the calls were made is not given here.

molecular target: Induced myeloid leukemia cell differentiation protein Mcl-1 (Homo sapiens) (UniProt Q07820); assay: modulators of Bim peptide binding to Mcl-1, dose response, biochemical, bead-based flow cytometry, multiplexed, human (AID 1329); conditions: Bim peptide-Mcl-1 binding, MCF
Sequence (Q07820 whole entry, looked up): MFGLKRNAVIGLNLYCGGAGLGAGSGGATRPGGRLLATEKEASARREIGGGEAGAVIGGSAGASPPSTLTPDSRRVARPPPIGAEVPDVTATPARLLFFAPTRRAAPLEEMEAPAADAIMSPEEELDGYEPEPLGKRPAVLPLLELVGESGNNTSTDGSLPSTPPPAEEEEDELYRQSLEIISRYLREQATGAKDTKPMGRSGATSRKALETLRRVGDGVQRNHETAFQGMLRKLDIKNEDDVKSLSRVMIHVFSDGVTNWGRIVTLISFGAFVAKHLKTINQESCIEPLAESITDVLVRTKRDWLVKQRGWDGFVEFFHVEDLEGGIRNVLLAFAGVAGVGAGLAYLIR

percent span | SMILES
inactive | COc1ccc(-n2c(NC(=O)c3ccco3)c(C#N)c3nc4ccccc4nc32)cc1
inactive | CC(=O)NC1=C(NC2CCS(=O)(=O)C2)C(=O)c2ccccc2C1=O (stereo not given)
inactive | COc1ccc(-c2nnc(SCC(=O)Nc3nc4ccccc4s3)n2C)cc1
inactive | CCOc1ccc2nc(SCC(=O)N3c4ccccc4Sc4ccccc43)c(C#N)cc2c1
inactive | S=c1[nH]cc(-c2ccccc2)n1-c1ccccc1

Continued, molecule first:

SMILES | percent span
COc1ccc(NS(=O)(=O)c2cc(NC(=O)c3ccc(C)o3)ccc2N2CCCCC2)cc1 | inactive
COc1c(F)c(F)c(C(=O)Nc2ccccc2N2CCN(C(=O)C(C)C)CC2)c(F)c1F | inactive
CCC(=O)OCCNc1cc(Sc2nccn2C)c2nonc2c1[N+](=O)[O-] | inactive
CCOC(=O)c1ccc(N=c2ssnc2Cl)cc1 | inactive
CN(C)/C=C/C(=O)c1ccc(C(F)(F)F)cc1F | inactive
Cc1ccc(NC(=O)c2cc(S(=O)(=O)NCCC3=CCCCC3)ccc2F)cc1F | inactive
O=C(Nc1ccc(Cl)cn1)Nc1ccccc1F | inactive
CCOC(=O)C1CCCN(c2ncnc3c2cnn3-c2cccc(C)c2)C1 (stereo not given) | inactive
CC1=C2C(CCS2(=O)=O)CC2(C1)C(=O)OC(C)(C)OC2=O (stereo not given) | inactive
Fc1ccc(C2=Nn3c(Cc4ccccc4F)nnc3SC2)cc1 | inactive
